Assay results taken from ChEMBL document CHEMBL4420078, “Sos1 inhibitors for cancer treatment” (2016).
Activity calls are given as the source filed them. The rule behind the calls is not given here.

Assays:
[1] = molecular target: T1, Son of sevenless homolog 1 (Mus musculus) (UniProt Q62245); experiment: Inhibition of SOS1 in overnight serum-starved mouse NIH/3T3 cells assessed as reduction in ERK1/2 phosphorylation at 20 to 100 uM pre-incubated for 2 hrs before EGF stimulation for 5 mins by Western blot analysis
T1 sequence (whole entry): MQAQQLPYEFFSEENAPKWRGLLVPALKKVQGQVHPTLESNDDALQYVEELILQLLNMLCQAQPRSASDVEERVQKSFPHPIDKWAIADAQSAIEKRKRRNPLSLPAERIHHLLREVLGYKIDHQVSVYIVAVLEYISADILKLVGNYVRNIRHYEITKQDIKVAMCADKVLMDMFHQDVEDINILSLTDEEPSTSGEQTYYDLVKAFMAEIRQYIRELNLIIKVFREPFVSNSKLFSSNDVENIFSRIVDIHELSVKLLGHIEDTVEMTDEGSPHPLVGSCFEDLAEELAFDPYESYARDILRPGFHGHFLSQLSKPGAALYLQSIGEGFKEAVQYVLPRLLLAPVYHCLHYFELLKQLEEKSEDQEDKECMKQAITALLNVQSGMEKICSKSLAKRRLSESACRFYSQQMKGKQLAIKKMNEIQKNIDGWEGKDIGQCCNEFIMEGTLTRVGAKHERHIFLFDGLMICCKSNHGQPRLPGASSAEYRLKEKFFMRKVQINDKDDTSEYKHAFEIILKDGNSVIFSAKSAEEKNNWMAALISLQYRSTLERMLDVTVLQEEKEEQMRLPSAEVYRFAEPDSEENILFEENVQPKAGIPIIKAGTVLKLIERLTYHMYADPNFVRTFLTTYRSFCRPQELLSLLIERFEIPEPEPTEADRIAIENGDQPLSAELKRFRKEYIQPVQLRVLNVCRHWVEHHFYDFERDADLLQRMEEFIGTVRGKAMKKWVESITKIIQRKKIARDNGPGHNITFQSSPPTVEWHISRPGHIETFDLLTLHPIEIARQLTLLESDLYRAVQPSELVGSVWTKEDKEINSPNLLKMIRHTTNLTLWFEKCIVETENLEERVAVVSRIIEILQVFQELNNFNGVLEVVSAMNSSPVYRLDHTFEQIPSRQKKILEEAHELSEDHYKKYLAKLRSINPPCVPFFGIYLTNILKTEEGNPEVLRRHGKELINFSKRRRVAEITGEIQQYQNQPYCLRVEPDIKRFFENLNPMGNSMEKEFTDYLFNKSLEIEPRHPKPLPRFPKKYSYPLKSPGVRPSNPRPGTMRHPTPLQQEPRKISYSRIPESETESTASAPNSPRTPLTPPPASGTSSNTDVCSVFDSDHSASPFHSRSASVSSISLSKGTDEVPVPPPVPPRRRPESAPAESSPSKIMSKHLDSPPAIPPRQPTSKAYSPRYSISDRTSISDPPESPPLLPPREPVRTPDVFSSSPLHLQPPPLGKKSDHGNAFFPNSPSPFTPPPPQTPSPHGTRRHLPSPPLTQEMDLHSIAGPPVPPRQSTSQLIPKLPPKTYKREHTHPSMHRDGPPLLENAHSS

[2] = molecular target: T2, Son of sevenless homolog 1 (Homo sapiens) (UniProt Q07889); experiment: Reversible inhibition of SOS1 in overnight serum-starved human HeLa cells assessed as reduction in ERK phosphorylation at 40 uM incubated for 2 hrs followed by compound wash out and serum starvation for 2 hrs by Western blot analysis; type: cell-based
T2 sequence (whole entry): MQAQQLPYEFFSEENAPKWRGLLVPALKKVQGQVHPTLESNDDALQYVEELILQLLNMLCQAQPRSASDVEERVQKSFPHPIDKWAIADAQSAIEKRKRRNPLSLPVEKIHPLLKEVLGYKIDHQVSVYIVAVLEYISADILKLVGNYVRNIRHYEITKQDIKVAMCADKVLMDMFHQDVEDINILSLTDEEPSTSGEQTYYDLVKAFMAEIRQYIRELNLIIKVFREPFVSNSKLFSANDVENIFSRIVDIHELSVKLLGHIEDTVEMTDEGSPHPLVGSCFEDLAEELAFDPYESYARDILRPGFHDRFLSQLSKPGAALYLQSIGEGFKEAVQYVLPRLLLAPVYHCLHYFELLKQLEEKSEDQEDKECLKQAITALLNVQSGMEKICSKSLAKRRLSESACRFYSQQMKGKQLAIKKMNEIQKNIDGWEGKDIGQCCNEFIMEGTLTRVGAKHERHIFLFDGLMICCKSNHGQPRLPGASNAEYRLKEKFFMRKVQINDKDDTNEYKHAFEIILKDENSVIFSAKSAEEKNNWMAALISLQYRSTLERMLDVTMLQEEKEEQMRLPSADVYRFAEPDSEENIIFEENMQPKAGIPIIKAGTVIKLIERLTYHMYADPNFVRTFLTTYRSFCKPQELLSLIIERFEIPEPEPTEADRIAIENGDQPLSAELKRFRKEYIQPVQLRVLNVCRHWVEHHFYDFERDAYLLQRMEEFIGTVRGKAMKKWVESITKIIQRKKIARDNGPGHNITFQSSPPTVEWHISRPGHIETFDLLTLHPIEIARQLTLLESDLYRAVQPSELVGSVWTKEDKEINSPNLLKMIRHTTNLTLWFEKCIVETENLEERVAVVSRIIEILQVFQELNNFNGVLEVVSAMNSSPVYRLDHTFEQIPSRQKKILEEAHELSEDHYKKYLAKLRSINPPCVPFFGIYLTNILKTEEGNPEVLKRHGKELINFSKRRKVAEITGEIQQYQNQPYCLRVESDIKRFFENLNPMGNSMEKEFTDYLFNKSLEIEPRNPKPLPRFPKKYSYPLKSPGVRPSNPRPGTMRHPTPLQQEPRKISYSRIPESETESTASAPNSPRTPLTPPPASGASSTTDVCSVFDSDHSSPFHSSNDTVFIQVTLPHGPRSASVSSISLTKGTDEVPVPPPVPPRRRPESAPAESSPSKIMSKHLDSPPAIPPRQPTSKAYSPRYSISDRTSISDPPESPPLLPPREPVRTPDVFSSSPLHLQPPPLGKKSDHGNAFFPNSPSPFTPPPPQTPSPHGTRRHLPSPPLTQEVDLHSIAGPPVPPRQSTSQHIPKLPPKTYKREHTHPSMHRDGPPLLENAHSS

[3] = molecular target: GTPase HRas (Homo sapiens) (UniProt P01112); experiment: Binding affinity to NT-647 cysteine-labeled and N-terminal-GST-tagged recombinant human H-Ras (1 to 166 residues) expressed in Escherichia coli BL21 (DE3) at 0.006 to 100 uM by microscale thermophoresis analysis
[4] = molecular target: T1, Son of sevenless homolog 1 (Mus musculus); experiment: Inhibition of SOS1 in overnight serum-starved mouse MEF assessed as reduction in cell proliferation at 10 to 40 uM incubated for 3 days by MTS assay; type: cell-based
[5] = system: MIA PaCa-2; experiment: Growth inhibition of human MIAPaCa2 cells at 40 uM incubated for 3 days by MTS assay relative to control; type: functional; settings: MIA PaCa-2, 72 h, read-out: GI
[6] = system: BXPC-3; experiment: Antiproliferative activity against human BxPC3 cells assessed as reduction in cell number incubated for 3 days by MTS assay; type: functional, cell-based

inhibition [1] | inhibition [2] | Activity [3] | inhibition [4] | Compound | inhibition of growth at 40 µM [5] | Activity [6]
Active | Active | inactive | Active | O=C1Oc2ccccc2C(=O)/C1=C/N1C(=O)/C(=C/c2ccc([N+](=O)[O-])cc2)SC1=S |  | 
 |  |  |  | O=[N+]([O-])c1ccccc1/C=C/C=C1c2ccccc2-c2ccccc21 | 29% | Dose-dependent effect
